Consider one molecule from patent publication US20240148671A1, “METHODS FOR IMPROVING POULTRY HEALTH” (CORNELL UNIVERSITY, priority 2021, published 2024).

Holding throughout (format): in vivo, Gallus gallus
One assay relates to TNF-α. In words: Gene expression (RT-PCR), TNF-α. Particulars: at hatch; b175, b210: compared with the 5% inulin control group; b192: comparator not stated; p<0.05. The procedure:
(§1) The pure resveratrol and pterostilbene were individually diluted in 18 MΩ H2O. The intra-amniotic administration followed the methodology previously described. On the 17th day of embryonic development, the eggs with viable embryos (n=60) were randomly allocated into 6 groups (n=10) with a similar weight frequency distribution. For the intra-amniotic treatment, 1 mL of solution per egg was injected into the amniotic fluid (via candling) with the aid of a 21-gauge needle. […]
(§2) The RNA was isolated as described previously (RNeasy Mini Kit, Qiagen Inc., Valencia, CA, USA), and 30 mg of the duodenal tissue or liver tissue (n =8) was used to extract the total RNA. […] Finally, the RNA was eluted in 50 μL of RNase-free water and quantified by absorbance at 260 and 280 nm.
(§3) RT-PCR was conducted as described. […] The cDNA content was assessed by absorbance at 260 and 280 nm, with an extinction coefficient of 33 (single-stranded DNA). Genomic DNA contamination was evaluated via a real-time RT-PCR assay for the reference gene samples [17,18,30]. […]
(§4) The procedures were performed as previously published. […] The optimal MgCl2 concentration achieved, for each reaction, an amplification plot (lowest cycle product, Cp), the uppermost fluorescence intensity and the steepest amplification slope. […]

A further assay relates to Liver Ferritin. As to the kind of experiment: Liver ferritin. Particulars: intra-amniotic 1 mL/egg on day 17, at hatch, mean ± SEM, n=5. On the procedure: (§5) The pure resveratrol and pterostilbene were individually diluted in 18 MΩ H2O. The intra-amniotic administration followed the methodology previously described. On the 17th day of embryonic development, the eggs with viable embryos (n=60) were randomly allocated into 6 groups (n=10) with a similar weight frequency distribution. For the intra-amniotic treatment, 1 mL of solution per egg was injected into the amniotic fluid (via candling) with the aid of a 21-gauge needle. After the procedure, the injection sites were sealed with cellophane tape, and the eggs were distributed into six groups: (1) no injection; (2) 18 MΩ H2O; (3) 5% inulin; (4) 5% resveratrol; (5) 5% pterostilbene; and (6) synergistic: 4.75% resveratrol and 0.25% pterostilbene. […] The eggs were equally distributed in each incubator location to reduce possible allocation bias. Upon hatching (21 days), the hatchlings were euthanized by CO2 exposure, and the blood, liver, heart, pectoral muscle, small intestine and cecum were obtained.

In another assay the test system is hemoglobin (Hb). In words: Blood hemoglobin (Hb) after intra-amniotic administration. On the procedure:
as §5
Blood was collected using micro-hematocrit heparin-coated capillary tubes (Fisher Scientific, Waltham, MA, USA). The hemoglobin (Hb) concentration was assessed spectrophotometrically using the QuantiChrom™ Hb Assay (DIHB-250, BioAssay Systems, Hayward, CA, USA) and according to specific instructions.

Another assay deals with IL-1β. As to the kind of experiment: Gene expression (RT-PCR), IL-1β. Particulars: at hatch; b175, b210: compared with the 5% inulin control group; b192: comparator not stated; p<0.05. The procedure:
as §1, §2, §3, §4

The subject of assay [1] is duodenal tissue (villi, crypts, goblet cells). As to the kind of experiment: Morphometric examination of duodenal tissue. On the procedure: as §5
Villus epithelium analysis was conducted as previously published. The duodenal samples were soaked in buffered formaldehyde (4% (v/v)), dehydrated, cleared and embedded in paraffin. Numerous sections were cut with a thickness of 5 μm and put on slides. The sections were deparaffinized in xylene, after which they were rehydrated in a series of graded alcohol. Finally, the slides were stained with Alcian Blue-periodic acid-Schiff and investigated under a light microscopy. The variables were assessed (light microscope, EPIX XCAP software, standard version, Olympus, Waltham, MA, USA) for the following: villus length, villus diameter, depth of crypts, goblet cell diameter, crypt goblet cell number and villus goblet cells type number (acidic, neutral or mixed). Four segments for each biological sample and five biological samples per treatment group were examined. The goblet cells were enumerated at 10 villi/sample, and the means were calculated for statistical analysis.

Assay [2] deals with DMT1 (Divalent metal transporter 1). In words: Gene expression (RT-PCR), DMT1. As to conditions: at hatch, b173: compared with the other treatments and the controls, b190: comparator not stated, p<0.05. On the procedure: as §1, §2, §3, §4
The subject of the next assay is AP (Aminopeptidase). In words: Gene expression (RT-PCR), AP. Particulars: at hatch; b175: relative to the 18 MΩ M2O and 5% inulin control groups; b192: comparator not stated; p<0.05. On the procedure: as §1, §2, §3, §4
Assay [3] has as its system AT1R (angiotensin II receptor type I). In words: Gene expression (RT-PCR), AT1R. Particulars: intestinal and heart gene expression (FIG. 2); b176: compared with the no injection control; b192: comparator not stated; b210: between the experimental groups. The procedure:
as §1, §2, §3, §4

The mark [4] stands for this setting: duodenum, intra-amniotic 1 mL/egg on day 17, at hatch, mean ± SEM, n=5.
The mark [5] stands for this setting: small intestine, intra-amniotic 1 mL/egg on day 17, at hatch, mean ± SEM, n=5.

Marks after values point to notes of the source that are not given here.

On to `Oc1ccc(C=Cc2cc(O)cc(O)c2)cc1` [5% Resveratrol, Resveratrol], for which, in the assay with TNF-α, the TNF-α gene expression entry was “downregulated”. Moreover, in the assay with Liver Ferritin, the “Liver Ferritin (A.U.)” value was 0.839 ± 0.393^bc A.U. The “Hb (g/dL)” value with hemoglobin (Hb) (intra-amniotic 1 mL/egg on day 17, blood at hatch (day 21), mean ± SEM) is listed as 9.71 ± 0.53^a g/dL. In the assay on hemoglobin (Hb) (synergistic vs the controls and other treatment groups (p<0.05), 5% resveratrol and 5% pterostilbene vs the control groups), the “Hb concentration, comparison between groups” value is “no difference”. Also, the IL-1β gene expression entry in the assay with IL-1β is recorded as “downregulated”. Also, in assay [1] (setting [4]), the “Depth of Crypts (μm)” value is 63.73 ± 1.20^a μm, the “Mucus Layer Width (μm)” value was 4.80 ± 0.13^d μm, the “Villus Diameter (μm)” value was 54.47 ± 0.70^b μm and the “Villus Length (μm)” value is on record as 294.92 ± 3.48^c μm. Further, in assay [1] (setting [5]), the “Crypt Goblet Cell Number” value was 10.91 ± 0.21 ^b; the “Goblet Cell Diameter (μM)” value was 7.94 ± 0.06 ^b μM; the “Villus Goblet Cell Type Number, Acidic” value was 10.97 ± 0.23 ^a; the “Villus Goblet Cell Type Number, Mixed” value is on record as 0.17 ± 0.03 ^c. Moreover, the “Villus Goblet Cell Type Number, Neutral” value in assay [1] (setting [5]) is listed as 0.00 ± 0.00 ^b. Further, in assay [1] (versus the controls, p<0.05), the “Duodenal villus diameter, comparison with controls” value is “significant increase” and the “Duodenal villus length, comparison with controls” value was “significant increase”. In addition, the “DMT1 relative gene expression” value in assay [2] (listed as 5% resveratrol) is listed as “lowest”. Further, in assay [2] (listed as resveratrol), the “DMT1 relative gene expression” value is listed as “downregulated significantly”. The AP relative expression result with AP (Aminopeptidase) was “downregulated”. In assay [3], the AT1R gene expression entry is given as “downregulated”.
